# Laboratory results from US12728111B2, “Electrophilic compounds and electrophilic prodrugs for treating aneurysm” (University of Pittsburgh—Of the Commonwealth System of …, priority 2020, dated 2026).
# How the values were obtained:
# [1] = test system: oxLDL-induced Il1b and Mmp9 expression in BMDMs; assay: Real-time PCR of oxLDL-induced pro-inflammatory genes in BMDMs; assay type: cell-based, mouse; conditions: PPARγ antagonist or siRNA given with NO2—OA
# Protocol: FIG. 3. NO2—OA prevents oxLDL-induced NFκB activation and pro-inflammatory cytokine production. Primary BMDMs were pretreated with vehicle, OA (2.5 μM) or NO2—OA (2.5 μM) for 1 h, followed by treatment of oxLDL (50 to 100 μg/ml) for the indicated times. (A, B) Nuclear (A) and cytoplasmic protein (B) fractions were isolated 1 h after oxLDL treatment and subjected to western blot with antibodies against p65, lamin a/c (nuclear marker) and GAPDH (cytosolic marker). Representative western blot images of three independent experiments are shown. (C) Quantification of the p65 nuclear to cytoplasmic ratio by image studio (normalized by the internal control, n=3). (D-F) Following 8 h of oxLDL treatment, levels of IL6, MCP1 and TNFα in the cell medium were measured by ELISA (n=4). (G) Real-time PCR quantification of gene expression levels of IL1b and Mmp9 in total mRNA extracted from the BMDMs. (C) Ordinary one-way ANOVA followed by Tukey's test was performed. As of (D-F), the basal level contains several non-detectable values, so ordinary one-way ANOVA followed by correction of FDR were performed for the oxLDL-treated groups only. Ordinary one-way ANOVA followed by Tukey's test was performed for (G). Data presented as mean±SEM. A p<0.05 for both the main test and post hoc test was considered statistically significant.
# Mice suprarenal aortas were collected after the measurement of their diameter. Human aortic aneurysm samples were obtained from the Department of Cardiac Surgery at the University of Michigan. Samples from humans and mice were snap-frozen in liquid nitrogen for later processing. RNA from tissue was extracted using TRIzol (#15596018, Invitrogen). RNA from cells was isolated with the RNeasy Mini Kit (#74106, QIAGEN). SuperScript™ III First-Strand Synthesis System (#18080051, Invitrogen) was used to reverse-transcribe mRNA into cDNA. Gene expression was quantified in triplicates by quantitative real-time PCR (qPCR) using IQ SYBR Green Supermix (#1708882, Bio-Rad) with the indicated gene primers.
# [2] = test system: AngII/PCSK9-induced AAA mouse model; assay: Ang II plus hypercholesterolemia (AngII/PCSK9) induced AAA mouse model; assay type: in vivo
# Protocol: FIG. 1. Characterization of the protective effect of NO2—OA (10-nitro-octadec-9-enoic acid) in the Ang II plus hypercholesterolemia-induced AAA mouse model. (A) Schematic illustration of the in vivo experimental design. Ten week old male C57BL/6 mice were IP injected with AAV carrying PCSK9 gain-of-function (D377Y) mutation and fed a western diet. After two weeks, each mouse was implanted with a pump delivering AngII at a rate of 1,500 ng/kg/min plus an additional pump containing either PEG-400 (vehicle), OA or NO2—OA with a delivery rate of 5 mg/kg/day (n=25 to 30 per group) and carried to the endpoint for another four weeks. Mice with ruptured aorta within the first week or with total plasma cholesterol less than 250 mg/dl were excluded from the study. (B) Representative morphological differences of the abdominal aorta. (C) AAA incidence calculated by using 1.2 mm as the cutoff diameter indicated by the dotted line in (D). (D) Average maximal diameter of the suprarenal aorta region. (E) Representative H&E and VVG staining of the paraffin-embedded suprarenal aortic cross-sections (5 μm). (F) Grade of elastic fiber degradation in the aorta (1 to 4). A 2×3 Fisher's exact test followed by posthoc test was performed for (C). For (D) and (F), the Kruskal-Wallis test followed by Dunn's multiple comparisons was performed. Continuous data are presented as mean±SEM. Scale bar=20 μm for (E). A p<0.05 for both the main test and post hoc test was considered statistically significant.
# Ten weeks old male C57BL/6J mice were purchased from The Jackson Laboratory. The murine AAA model induced by AngII/PCSK9 gain-of-function mutation is well-established. After acclimation for 1 week, mice were fed a western diet (TD.88137, Envigo) and intraperitoneally injected with 2×1011 genomic copies of AAV-PCSK9.D377Y (AAV serotype 8, Penn Vector Core). Two weeks later, each mouse was subcutaneously implanted with two osmotic pumps (Model #2004, Alzet). One was loaded with AngII (#H-1706, Bachem), releasing at a rate of 1,500ng/kg/min, while the other one was loaded with PEG-400, OA or NO2—OA at a delivery rate of 5 mg/kg/day for OA or NO2—OA. After 4-weeks infusion, mice were euthanized and the maximal outer diameter of the suprarenal aorta was assessed with a digital caliper by a third person blinded to the treatment. Suprarenal aortas with a maximal diameter ≥50% larger than standard size (≥1.2 mm) were considered as abdominal aortic aneurysms. Mice dead within the first week of pump implantation or with a serum total cholesterol level less than 250 mg/dL were excluded from the study. All animal procedures were performed following the protocols approved by the Institutional Animal Care & Use Committee (IACUC) at the University of Michigan.
# H&E and Verhoeff Van Gieson staining of paraffin or frozen sections of mouse suprarenal abdominal aorta were performed by the In-Vivo Animal Core at the University of Michigan. Elastin degradation grade was calculated as we previously reported.
SMILES,protective effect of NO2—OA on oxLDL-induced Il1b and Mmp9 expression [1],"AAA incidence ([2]; 5 mg/kg/day subcutaneous infusion, after 4 weeks, cutoff diameter 1.2 mm)","maximal diameter of the suprarenal aorta region ([2]; 5 mg/kg/day subcutaneous infusion, after 4 weeks, mean±SEM)","ECM degradation / elastin fiber degradation ([2]; 5 mg/kg/day, 4 weeks, VVG staining, grade 1 to 4)"
"O=C(Nc1ccccc1)c1cc([N+](=O)[O-])ccc1Cl [GW9662, reference compound]",partially blocked,,,
"CCCCCCCCC=CCCCCCCCC(=O)O [OA, octadec-9-enoic acid, reference compound]",,69.6%,1.78±0.18 mm,prominent
